Molecules are shown by their SMILES. Where two headings read alike, the source gives them in different places.

The term Cmax denotes the maximum level reached in the sampled fluid or tissue.

Data set [1] in a line: Drug and device safety of 5-ALA SDT in recurrent GBM patients (Phase 0/1). It is filed as in vivo, human. Particulars: three adult recurrent GBM patients. The method, then:
Six hours prior to MRgFUS, adult patients with recurrent GBM are administered SONALA-001 (10 mg/kg), an investigational IV formulation of […]. Oral […] is an FDA- and […] agent used in fluorescence-guided surgery to visualize glioma infiltration and maximize extent of resection. The […] Model 4000 Type-2 system is an investigational MRgFUS with a 1000-element transducer utilizing real-time MR imaging during treatment delivery. It includes the same monitoring capabilities as the ablative, FDA-approved Type-1 system for essential tremor and tremor-dominant Parkinson's Disease. However, the Type-2 device can target a large range of brain anatomy and operates at relatively low ultrasound frequencies and intensities, preventing tissue heating when inducing sonoluminescence. Intra-procedural MR thermometry automatically triggers an auto-stop if any tissue approaches ablative temperatures. […] Patients must have completed standard-of-care chemotherapy and radiotherapy prior to radiographic recurrence. In a Dose-Escalation Arm, 9-18 patients are assigned to one of three ascending acoustic energy doses of […], measured at transducer surface), followed by a four-day interval until tumor resection. In each patient, half the tumor volume, including Gadolinium-enhancing and non-enhancing tumor, is targeted with MRgFUS and the other half serves as an internal control. […]

The conditions of data set [2]: human, in vivo. The text has this: Performed similarly to Example 1 with same study drug but for Diffuse Intrinsic Pontine Glioma (DIPG) and with typically only radiation therapy performed prior.
Performed similarly to Example 1 but with an increase in the number of subspots per sonication (32 subspots). Targets were overlapped with a 2.0-3.0 mm spot to spot separation and Duty Cycle within 4-32% throughout the study. Pulse duration ranged from 0.0002 to 0.002 second.
Similar to Example 1, this multi-center, non-randomized, open label, first-in-pediatric Phase 1/2 study is a drug dose (5, 10, or 15 mg/kg SONALA-001) and focused ultrasound energy (200J, 400J, or 800J) escalation study containing 18-24 subjects, 9 cohorts of approximately 3 patients each. These pediatric patients with DIPG must have completed standard-of-care radiotherapy prior to radiographic treatment. No resection due to location but biopsy can be obtained. In the first patient, half of the Pons volume is targeted with MRgFUS and the other half serves as an internal control for safety. If no DLTs or any grade intracranial hemorrhage and any clinical symptoms (CTCAE, Version 5.0, i.e., intracranial hemorrhage Grades 2-5) are observed, the next patients will receive treatment over the entire pons. The intervention model will be sequential assignment using a Bayesian optimal interval (BOIN) dose escalation method. […]

Data set [3] is described as follows: Plasma and blood pharmacokinetics of 5-ALA and PPIX after IV SONALA-001 (LC-MS/MS). In kind it is in vivo. Particulars: human, plasma; 10 mg/kg IV Sonala-001; recurrent GBM patients; read-out: median Cmax for 5-ALA in plasma. The method, then:
Six hours prior to MRgFUS, adult patients with recurrent GBM are administered SONALA-001 (10 mg/kg), an investigational IV formulation of […]. Oral […] is an FDA- and […] agent used in fluorescence-guided surgery to visualize glioma infiltration and maximize extent of resection. LCMS/MS methods were developed to determine the levels of […] and PPIX in plasma and blood following IV administration of SONALA-001. Samples were analyzed using SCIEX ExionLC UHPLC system and the detection was performed on SCIEX QTRAP 6500+ mass spectrometer by multiple reaction monitoring mode to monitor the precursor-to-product ion transitions in positive electrospray ionization mode.

Take `NCC(=O)CCC(=O)O` [5-ALA, 5-aminolevulinic acid]: the 5-ALA-related photosensitivity entry in data set [1] and in data set [2] was “No patient demonstrated 5-ALA-related photosensitivity” each time. Moreover, the Cmax in data set [3] was 307 µM.

For the origin of these results see US20250041577A1, “SHORT-PULSE SONODYNAMIC TREATMENT APPARATUS” (Insightec, Ltd., priority 2021, published 2025).
